Laboratory results taken from patent US7928227B2, “2-oxo-1,3,5-perhydrotriazapine derivatives useful in the treatment of hyper-proliferative, angiogenesis, and inflammatory disorders” (Bayer Healthcare LLC, priority 2003, dated 2011).

What was measured:
[1] = Pharmacokinetics in the mouse (plasma levels by LC-MS after oral gavage of Example 1); format: in vivo; details: for AUC / Cmax / concentration at 0.5 h / concentration at 1 h / concentration at 5 h: mouse, female ICr mice, single oral gavage of Example 1 at 30 mg/kg, plasma; for concentration at 0.5 h: 0.5 hours post dosing; for concentration at 1 h: 1 hour post dosing; for concentration at 5 h: 5 hours post dosing
Procedure: Female ICr mice received single doses of Example 1 by oral gavage at 30 mg/kg body weight. The vehicle used for administration consisted of 12.5% Cremophor, 12.5% ethanol and 75% saline. Blood samples were collected by cardiac puncture under anesthesia and plasma was isolated by centrifugation. Three animals were used for each time point of 0.5, 1 and 5 hours post dosing. Plasma levels of Example 1 and Intermediate 1 were measured by LC-MS.
Calibration samples (1 to 5,000 ng/mL) were prepared by spiking drug-free mouse plasma with known concentrations of Example 1 and Intermediate 1 and then processed with the study samples. An internal standard (close analog) was spiked at a final concentration of 100 ng/ml. Plasma samples were extracted via protein precipitation using acetonitrile (3:1). After vortexing for 1 minute, samples were centrifuged at 2500 rpm for 15 minutes. Supernatant was transferred to 96-well microtiter plates for LC-MS analysis. Analytes (Example 1 and Intermediate 1) and the internal standard were monitored using MRM transitions consisting of their protonated molecular ions to prominent fragment ions (Example 1 m/z 520 to m/z 270; Intermediate 1 m/z 465 to 252; internal standard m/z 469 to m/z 256). The calibration curve was constructed using least squares linear regression and utilized peak area ratios of the analyte and internal standard. Pharmacokinetic analysis of the measured plasma concentrations was conducted using the Watson® Drug Metabolism Laboratory Information Management System (Innaphase Corp, Philadelphia, Pa.). […] By changing the nature of substituent Q in Formula (I), it is possible to impact the stability, i.e., the speed of hydrolysis) of the prodrug, and therefore to modulate the plasma exposure to the pharmacologically active compound. High stabilities will lead to extended release of the drug, while low stabilities will contribute to high Cmax and short duration of action.

| AUC [1] [µM·h] | Cmax [1] [µM] | concentration at 0.5 h [1] [µM] | concentration at 1 h [1] [µM] | concentration at 5 h [1] [µM] | Absorption in mice ([1]; oral gavage of Example 1 at 30 mg/kg, result in words) | melting point [°C] | Levels detected in plasma after oral administration of the pro-drug Example 1 ([1]; mice, oral gavage of Example 1 at 30 mg/kg, result in words) | Compound |
| --- | --- | --- | --- | --- | --- | --- | --- | --- |
| 53.1 | 13 | 12.1 | 13 | 9.4 | very well absorbed | 82 to 85 | – | CNC(=O)c1cc(Oc2ccc(N3CN(C)CN(c4ccc(Cl)c(C(F)(F)F)c4)C3=O)cc2)ccn1 [Example 1] |
| 1 | 0.3 | 0.1 | 0.2 | 0.5 | – | – | significant levels | CNC(=O)c1cc(Oc2ccc(NC(=O)Nc3ccc(Cl)c(C(F)(F)F)c3)cc2)ccn1 [Intermediate 1, N-(4-chloro-3(trifluoromethyl)phenyl)-N′-(4-(2-(N-methylcarbamoyl)-4-pyridyloxy)phenyl)urea, reference compound] |
